Consider 38 compounds from US20230391739A1, “ARYL DERIVATIVES FOR TREATING TRPM3 MEDIATED DISORDERS” (Katholieke Universiteit Leuven, priority 2020, published 2023).

The target of the assay is T1, mouse TRPM3α2 (mTRPM3) ion channel (Mus musculus, UniProt J9SQF3).
T1 construct: expressed in transfected cells; host or cells: flip-in HEK293
T1 sequence (J9SQF3 1-1709 isoform J9SQF3-12): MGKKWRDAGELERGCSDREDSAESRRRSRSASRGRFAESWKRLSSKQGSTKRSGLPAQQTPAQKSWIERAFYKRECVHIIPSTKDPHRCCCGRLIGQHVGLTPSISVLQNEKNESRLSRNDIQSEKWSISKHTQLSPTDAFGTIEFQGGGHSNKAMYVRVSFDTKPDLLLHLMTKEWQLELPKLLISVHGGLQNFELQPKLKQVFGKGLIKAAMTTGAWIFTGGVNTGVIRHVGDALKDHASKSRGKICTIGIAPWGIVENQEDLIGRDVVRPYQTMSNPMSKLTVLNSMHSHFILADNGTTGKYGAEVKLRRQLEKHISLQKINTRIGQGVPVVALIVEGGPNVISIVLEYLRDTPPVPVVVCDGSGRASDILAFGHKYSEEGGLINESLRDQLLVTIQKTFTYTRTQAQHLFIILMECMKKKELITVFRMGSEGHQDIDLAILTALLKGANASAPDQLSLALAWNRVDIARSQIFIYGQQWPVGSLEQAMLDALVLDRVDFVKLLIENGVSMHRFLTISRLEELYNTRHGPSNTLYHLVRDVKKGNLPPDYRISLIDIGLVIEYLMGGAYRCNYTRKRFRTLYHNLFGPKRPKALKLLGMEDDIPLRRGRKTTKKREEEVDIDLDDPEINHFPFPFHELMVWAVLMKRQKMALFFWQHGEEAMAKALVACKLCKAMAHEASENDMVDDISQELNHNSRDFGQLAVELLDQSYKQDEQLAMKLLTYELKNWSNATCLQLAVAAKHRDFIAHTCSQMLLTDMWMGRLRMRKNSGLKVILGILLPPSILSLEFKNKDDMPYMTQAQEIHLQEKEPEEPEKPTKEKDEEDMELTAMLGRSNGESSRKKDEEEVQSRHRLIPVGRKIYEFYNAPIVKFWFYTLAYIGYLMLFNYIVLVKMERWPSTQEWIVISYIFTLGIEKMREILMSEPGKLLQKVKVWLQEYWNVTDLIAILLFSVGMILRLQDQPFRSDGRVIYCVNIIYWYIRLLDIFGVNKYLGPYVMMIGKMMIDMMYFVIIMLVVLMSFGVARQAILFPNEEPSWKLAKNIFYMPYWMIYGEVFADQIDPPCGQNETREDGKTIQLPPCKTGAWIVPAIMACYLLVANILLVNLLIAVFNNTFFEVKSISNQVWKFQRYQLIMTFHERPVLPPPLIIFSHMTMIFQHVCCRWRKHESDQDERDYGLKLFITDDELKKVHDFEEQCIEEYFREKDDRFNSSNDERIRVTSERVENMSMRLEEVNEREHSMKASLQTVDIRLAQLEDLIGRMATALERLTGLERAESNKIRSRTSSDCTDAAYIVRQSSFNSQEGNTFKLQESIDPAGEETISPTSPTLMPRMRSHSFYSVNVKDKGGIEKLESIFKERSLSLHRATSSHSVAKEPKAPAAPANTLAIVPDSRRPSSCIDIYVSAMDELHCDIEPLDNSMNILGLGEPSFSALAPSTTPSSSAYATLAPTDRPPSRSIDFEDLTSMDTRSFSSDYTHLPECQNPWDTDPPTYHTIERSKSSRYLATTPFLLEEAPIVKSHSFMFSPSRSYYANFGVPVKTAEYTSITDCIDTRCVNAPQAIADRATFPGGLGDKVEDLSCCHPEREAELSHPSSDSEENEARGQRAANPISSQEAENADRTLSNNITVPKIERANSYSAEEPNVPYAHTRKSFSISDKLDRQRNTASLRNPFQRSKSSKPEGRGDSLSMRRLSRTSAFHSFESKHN
As to the kind of experiment: TRPM3 ion channel driven Ca2+ uptake, Fluo-4 AM assay, PS-stimulated (mTRPM3). Format: cell-based. The settings on record: TRPM3 overexpressing flip-in HEK293 cells stimulated with Pregnenolone sulfate (PS) 50 μM, activity ranges A, B, C. In outline:
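Ca²⁺ influx through mouse TRPM3α2, opened by 50 μM pregnenolone sulfate, was tracked with Fluo-4 AM in stably transfected HEK293 cells read directly after seeding onto pre-dispensed compound.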
As to `Cc1oc2ccc(OCc3ccccc3)cc2c1C(=O)N[C@H]1C[C@H]2C(=O)NCC(=O)N2C1` [Cpd 222, 5-(benzyloxy)-N-((7S,8aS)-1,4-dioxooctahydropyrrolo[1,2-a]pyrazin-7-yl)-2-methylbenzofuran-3-carboxamide], the IC50 (in general, the concentration needed to halve the response being measured) lay within 1000 to 20000 nM.
In the case of `Cc1oc2ccc(OCc3ccccc3)cc2c1C(=O)NC1CCS(=O)(=O)CC1` [Cpd 198, 5-(benzyloxy)-N-(1,1-dioxidotetrahydro-2H-thiopyran-4-yl)-2-methylbenzofuran-3-carboxamide], the IC50 was below 1000 nM.
As for `Cc1oc2ccc(OCc3ccccc3)cc2c1C(=O)NC1(CN)CCC1` [Cpd 082, N-(1-(aminomethyl)cyclobutyl)-5-(benzyloxy)-2-methylbenzofuran-3-carboxamide], the concentration for half-maximal inhibition (IC50) is below 1000 nM.
In the case of `Cc1oc2ccc(OCc3ccccc3S(C)(=O)=O)cc2c1C(=O)NC1CCNCC1(F)F` (single isomer, unassigned) [Cpd 333-En 1, N-(3,3-difluoropiperidin-4-yl)-2-methyl-5-((2-(methylsulfonyl)benzyl)oxy)benzofuran-3-carboxamide] it was 1000 to 20000 nM; in that of `Cc1oc2ccc(OCc3ccccc3)cc2c1C(=O)NC1CCN(Cc2ccccc2)CC1` [Cpd 241, 5-(benzyloxy)-N-(1-benzylpiperidin-4-yl)-2-methylbenzofuran-3-carboxamide], 1000 to 20000 nM; in that of `Cc1oc2ccc(OCc3ccccc3)cc2c1C(=O)N1CCC(N)CC1` [Cpd 073, (4-aminopiperidin-1-yl)(5-(benzyloxy)-2-methylbenzofuran-3-yl)methanone], above 20000 nM.
The value for `Cc1oc2ccc(OCc3ccccc3)cc2c1C(=O)NCc1ccnn1C` [Cpd 104, 5-(benzyloxy)-2-methyl-N-((1-methyl-1H-pyrazol-5-yl)methyl)benzofuran-3-carboxamide] was below 1000 nM.
The value for `Cc1oc2ccc(OCc3ccccc3)cc2c1C(=O)N[C@@H]1CCN(C)C1` [Cpd 080, (R)-5-(benzyloxy)-2-methyl-N-(1-methylpyrrolidin-3-yl)benzofuran-3-carboxamide] was below 1000 nM; that for `Cc1oc2ccc(OCc3ccc(C#N)cc3)cc2c1C(=O)N[C@H]1CCNC1` [Cpd 103, (S)-5-((4-cyanobenzyl)oxy)-2-methyl-N-(pyrrolidin-3-yl)benzofuran-3-carboxamide] was 1000 to 20000 nM; that for `Cc1oc2ccc(OCc3ccccc3)cc2c1C(=O)NCCc1ccccn1` [Cpd 138, 5-(benzyloxy)-2-methyl-N-(2-(pyridin-2-yl)ethyl)benzofuran-3-carboxamide] was 1000 to 20000 nM.
For `Cc1oc2ccc(OCc3ccccc3)cc2c1C(=O)NC1(CNC(=O)OC(C)(C)C)CCC1` [Cpd 246, tert-butyl ((1-(5-(benzyloxy)-2-methylbenzofuran-3-carboxamido)cyclobutyl)methyl)carbamate], the half-inhibitory concentration (IC50) was in the range of 1000 to 20000 nM.
In the case of `Cc1oc2ccc(OCc3ccccc3)cc2c1C(=O)N[C@H]1CC2CC[C@H](C1)N2C(=O)OC(C)(C)C` [Cpd 258, tert-butyl (1R,3s,5S)-3-(5-(benzyloxy)-2-methylbenzofuran-3-carboxamido)-8-azabicyclo-[3.2.1]octane-8-carboxylate] it was below 1000 nM.
In the case of `Cc1ccc(COc2ccc3oc(C)c(C(=O)N[C@@H](CO)C(N)=O)c3c2)c(F)c1` [Cpd 342, (S)—N-(1-amino-3-hydroxy-1-oxopropan-2-yl)-5-((2-fluoro-4-methylbenzyl)oxy)-2-methylbenzofuran-3-carboxamide] it was below 1000 nM.
In the case of `COC(=O)C1(NC(=O)c2c(C)oc3ccc(OCc4ccccc4)cc23)CCOCC1` [Cpd 212, methyl 4-(5-(benzyloxy)-2-methylbenzofuran-3-carboxamido)tetrahydro-2H-pyran-4-carboxylate] it was below 1000 nM.
As to `Cc1oc2ccc(OCc3ccccc3)cc2c1C(=O)Nc1cccnn1` [Cpd 062, 5-(benzyloxy)-2-methyl-N-(pyridazin-3-yl)benzofuran-3-carboxamide], the IC50 was above 20000 nM.
For the compound `Cc1oc2ccc(OCc3ccccc3)cc2c1C(=O)N[C@H]1CC[C@H](C(C)(C)O)CC1` [Cpd 210, 5-(benzyloxy)-N-(trans-4-(2-hydroxypropan-2-yl)cyclohexyl)-2-methylbenzofuran-3-carboxamide], the half-inhibitory concentration (IC50) was 1000 to 20000 nM.
In the case of `Cc1ccc(COc2ccc3oc(C)c(C(=O)NC4CCN(C)CC4)c3c2)cc1` [Cpd 154, 2-methyl-5-((4-methylbenzyl)oxy)-N-(1-methylpiperidin-4-yl)benzofuran-3-carboxamide] it was 1000 to 20000 nM.
In the case of `Cc1oc2ccc(OCc3ccccc3)cc2c1C(=O)N1CCN(C)CC1` [Cpd 072, (5-(benzyloxy)-2-methylbenzofuran-3-yl)(4-methylpiperazin-1-yl)methanone] it was above 20000 nM; in that of `Cc1oc2ccc(OCc3ccccc3N3CCN(C)CC3)cc2c1C(=O)NC1CCNC1=O` (centres unmarked) [Cpd 245, 2-methyl-5-((2-(4-methylpiperazin-1-yl)benzyl)oxy)-N-(2-oxopyrrolidin-3-yl)benzofuran-3-carboxamide], above 20000 nM; in that of `Cc1oc2ccc(OCc3ccc(F)cc3)cc2c1C(=O)O` [Cpd 009, 5-((4-fluorobenzyl)oxy)-2-methylbenzofuran-3-carboxylic acid], 1000 to 20000 nM.
In the case of `Cc1oc2ccc(OCc3ccccc3F)cc2c1C(=O)NC1(CO)COC1` [Cpd 310, 5-((2-fluorobenzyl)oxy)-N-(3-(hydroxymethyl)oxetan-3-yl)-2-methylbenzofuran-3-carboxamide] it was below 1000 nM.
`Cc1oc2ccc(OCc3ccccc3)cc2c1C(=O)NCC1CCNCC1` [Cpd 121, 5-(benzyloxy)-2-methyl-N-(piperidin-4-ylmethyl)benzofuran-3-carboxamide] had an IC50 of 1000 to 20000 nM.
As for `Cc1oc2ccc(OC(C)c3ccccc3)cc2c1C(=O)NC1(CO)CCOCC1` (single isomer, unassigned) [Cpd 308-En 1, N-(4-(hydroxymethyl)tetrahydro-2H-pyran-4-yl)-2-methyl-5-(1-phenylethoxy)benzofuran-3-carboxamide], the 50% inhibitory concentration (IC50) is below 1000 nM.
The value for `Cc1oc2ccc(OCc3ccccc3F)cc2c1C(=O)NC(CO)C(N)=O` (single isomer, unassigned) [Cpd 314-En 2] was below 1000 nM; that for `Cc1oc2ccc(OCc3ccccc3)cc2c1C(=O)N[C@@H]1C[C@H]2CNC[C@H]2C1` [Cpd 140, 5-(benzyloxy)-2-methyl-N-(trans-octahydrocyclopenta[c]pyrrol-5-yl)benzofuran-3-carboxamide] was below 1000 nM.
The value for `Cc1oc2ccc(OCc3ccccc3F)cc2c1C(=O)NC1(C(N)=O)COC1` [Cpd 309, N-(3-carbamoyloxetan-3-yl)-5-((2-fluorobenzyl)oxy)-2-methylbenzofuran-3-carboxamide] was below 1000 nM.
In the case of `Cc1oc2ccc(OCc3ccccc3)cc2c1C(=O)N[C@H]1CCN(C)C1` [Cpd 079, (S)-5-(benzyloxy)-2-methyl-N-(1-methylpyrrolidin-3-yl)benzofuran-3-carboxamide] it was below 1000 nM; in that of `Cc1oc2ccc(OC(CO)c3ccccc3F)cc2c1C(=O)NC1(C(N)=O)CCC1` (single isomer, unassigned) [Cpd 345-En 2, N-(1-carbamoylcyclobutyl)-5-(1-(2-fluorophenyl)-2-hydroxyethoxy)-2-methylbenzofuran-3-carboxamide], below 1000 nM; in that of `Cc1oc2ccc(OCc3c(F)cccc3F)cc2c1C(=O)N[C@H]1CCN(C(=O)OC(C)(C)C)C1` [Cpd 257, tert-butyl (S)-3-(5-((2,6-difluorobenzyl)oxy)-2-methylbenzofuran-3-carboxamido)pyrrolidine-1-carboxylate], 1000 to 20000 nM.
`Cc1oc2ccc(OCc3ccccc3)cc2c1C(=O)NC1CN(C(=O)OC(C)(C)C)CCC1F` (single isomer, unassigned) [Cpd 255-Dia 1, tert-butyl 3-(5-(benzyloxy)-2-methylbenzofuran-3-carboxamido)-4-fluoropiperidine-1-carboxylate]: the half-inhibitory concentration (IC50) was below 1000 nM.
The value for `Cc1oc2ccc(OCc3ccccc3)cc2c1C(=O)N[C@@H]1CN[C@@H](C(=O)O)C1` [Cpd 163, (2R,4S)-4-(5-(benzyloxy)-2-methylbenzofuran-3-carboxamido)pyrrolidine-2-carboxylic acid] was 1000 to 20000 nM; that for `Cc1oc2ccc(OCc3ccccc3)cc2c1C(=O)NC1CCNCC1(F)F` (centres unmarked) [Cpd 173, 5-(benzyloxy)-N-(3,3-difluoropiperidin-4-yl)-2-methylbenzofuran-3-carboxamide] was below 1000 nM; that for `Cc1oc2ccc(OCc3ccccc3)cc2c1C(=O)NCc1nnc2ncccn12` [Cpd 196, N-([1,2,4]triazolo[4,3-a]pyrimidin-3-ylmethyl)-5-(benzyloxy)-2-methylbenzofuran-3-carboxamide] was 1000 to 20000 nM.
`Cc1oc2ccc(OCc3ccccc3)cc2c1C(=O)N[C@H]1CCN(C(=O)OC(C)(C)C)C1` [Cpd 239, tert-butyl (S)-3-(5-(benzyloxy)-2-methylbenzofuran-3-carboxamido)pyrrolidine-1-carboxylate] gave an IC50 of 1000 to 20000 nM.
In the case of `Cc1oc2ccc(OCc3ccccc3F)cc2c1C(=O)NC1COCC1(F)F` (single isomer, unassigned) [Cpd 331-En 2] it was below 1000 nM; in that of `Cc1oc2ccc(OCc3ccccc3)cc2c1C(=O)NC1CCN(C)C(C)C1` (centres unmarked) [Cpd 155, 5-(benzyloxy)-N-(1,2-dimethylpiperidin-4-yl)-2-methylbenzofuran-3-carboxamide], below 1000 nM; in that of `Cc1oc2ccc(OCc3cccc(F)c3)cc2c1C(N)=O` [Cpd 037, 5-((3-fluorobenzyl)oxy)-2-methylbenzofuran-3-carboxamide], above 20000 nM.
In the case of `Cc1oc2ccc(OCc3ccccc3)cc2c1C(=O)NCC1(CO)COC1` [Cpd 128, 5-(benzyloxy)-N-((3-(hydroxymethyl)oxetan-3-yl)methyl)-2-methylbenzofuran-3-carboxamide] it was below 1000 nM.
